Measured values reported in patent US20230041563A1, “N-(1,3,4-OXADIAZOL-2-YL)ARYLCARBOXAMIDES OR SALTS THEREOF, PREPARATION METHODS, HERBICIDAL COMPOSITIONS AND USES THEREOF” (priority 2018, published 2023).

Tests used:
Assay in all cases: Weeding effect in post-emergence stage (greenhouse pot spray)
Format in all cases: in vivo
Echinochloa crusgalli = conditions: for Echinochloa crusgah (activity level): Table 2, dose 500 g a.i./ha
Summary of the method: (§1)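 Read-out: fresh-weight growth control rate scored 3 weeks after spraying, mean of three replicates. Plants treated at 2-3 leaf stage by spray tower, doses 500-15 g a.i./ha (500, 250, 125, 60, 15).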

Abutilon theophrasti = conditions: Table 2, dose 500 g a.i./ha
Summary of the method: as §1

Setaria viridis = conditions: Table 3, dose 250 g a.i./ha
Summary of the method: as §1

Digitaria sanguinalis = conditions: for Digitaria sanguinalis (activity level): Table 2, dose 500 g a.i./ha
Summary of the method: as §1

Amaranthus retroflexus = conditions: Table 2, dose 500 g a.i./ha
Summary of the method: as §1

Stellaria media = conditions: Table 2, dose 500 g a.i./ha
Summary of the method: as §1

| SMILES | Echinochloa crusgah (activity level) (Echinochloa crusgalli) | Echinochloa crusgali (activity level) (Echinochloa crusgalli; Table 3, dose 250 g a.i./ha) | Abutilion theophrasti (activity level) (Abutilon theophrasti) | Setaria viridis (activity level) (Setaria viridis) | Digitaria sanguinalis (activity level) (Digitaria sanguinalis) | Digitaria sanguinahs (activity level) (Digitaria sanguinalis; Table 3, dose 250 g a.i./ha) | Amaranthus retroflexus (activity level) (Amaranthus retroflexus) | Stellaria media (activity level) (Stellaria media) |
| --- | --- | --- | --- | --- | --- | --- | --- | --- |
| CCSc1c(C(F)(F)F)ccc(C(=O)Nc2nnco2)c1F [Compound 3-4] | 5 (Level 5: growth control rate is above 85%) | 5 (Level 5: growth control rate is above 85%) | 5 (Level 5: growth control rate is above 85%) | 5 (Level 5: growth control rate is above 85%) | 5 (Level 5: growth control rate is above 85%) | 5 (Level 5: growth control rate is above 85%) | 5 (Level 5: growth control rate is above 85%) | 5 (Level 5: growth control rate is above 85%) |
| Cc1nnc(NC(=O)c2ccc(C(F)(F)F)c(SCCC(F)(F)F)c2F)o1 [Compound 1-51] | 5 (Level 5: growth control rate is above 85%) |  | 5 (Level 5: growth control rate is above 85%) |  | 5 (Level 5: growth control rate is above 85%) |  | 5 (Level 5: growth control rate is above 85%) | 5 (Level 5: growth control rate is above 85%) |
| CCC(C)[S+]([O-])c1c(C(F)(F)F)ccc(C(=O)Nc2nnco2)c1F (stereo not shown) [Compound 3-17] | 5 (Level 5: growth control rate is above 85%) |  | 5 (Level 5: growth control rate is above 85%) |  | 5 (Level 5: growth control rate is above 85%) |  | 5 (Level 5: growth control rate is above 85%) | 5 (Level 5: growth control rate is above 85%) |
| CCC(C)C[S+]([O-])c1c(C(F)(F)F)ccc(C(=O)Nc2nnc(C)o2)c1F (mixture of isomers) [Compound 1-29] | 5 (Level 5: growth control rate is above 85%) |  | 5 (Level 5: growth control rate is above 85%) |  | 5 (Level 5: growth control rate is above 85%) |  | 5 (Level 5: growth control rate is above 85%) | 5 (Level 5: growth control rate is above 85%) |
| Cc1nnc(NC(=O)c2ccc(C(F)(F)F)c(SCC(F)F)c2F)o1 [Compound 1-49] | 5 (Level 5: growth control rate is above 85%) |  | 5 (Level 5: growth control rate is above 85%) |  | 5 (Level 5: growth control rate is above 85%) |  | 5 (Level 5: growth control rate is above 85%) | 5 (Level 5: growth control rate is above 85%) |
